In patent US11173151B2, “Substituted triazole derivatives and uses thereof” (BAYER AKTIENGESELLSCHAFT, priority 2017, dated 2021):

Key:
human V1a receptor = target: T1, human V1a receptor (Homo sapiens, UniProt P37288); assay: Cellular in vitro assay for determining vasopressin receptor activity, V1a receptor cell line (CHO, aequorin luminescence); assay type: cell-based; details: for IC50: CHO cell line transfected with human V1a receptor, [Arg]-vasopressin at EC50 concentration, read-out: IC50 hV1a; for ratio IC50 hV2/hV1a: selectivity ratio IC50 hV2 / IC50 hV1a
T1 construct: expressed in transfected cells; host or cells: CHO K1 (ATCC), also stably transfected with a modified aequorin
How it was run: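 Cells were plated the day before in medium containing 5 μg/ml coelenterazine and kept at 37° C. Compounds at various concentrations were then added for 10 minutes. Next, [Arg]-vasopressin at EC50 was applied and light output recorded at once, yielding IC50.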

human V2 receptor = target: T2, human V2 receptor (Homo sapiens, UniProt P30518); assay: Cellular in vitro assay for determining vasopressin receptor activity, V2 receptor cell line (CHO, CRE-luciferase); assay type: cell-based; details: CHO cell line transfected with human V2 receptor; [Arg8]-vasopressin at EC50 concentration, 3 hours; read-out: IC50 hV2
T2 construct: expressed in transfected cells; host or cells: CHO K1 (ATCC) expressing firefly luciferase under a CRE-responsive promoter
T2 sequence (P30518 whole entry): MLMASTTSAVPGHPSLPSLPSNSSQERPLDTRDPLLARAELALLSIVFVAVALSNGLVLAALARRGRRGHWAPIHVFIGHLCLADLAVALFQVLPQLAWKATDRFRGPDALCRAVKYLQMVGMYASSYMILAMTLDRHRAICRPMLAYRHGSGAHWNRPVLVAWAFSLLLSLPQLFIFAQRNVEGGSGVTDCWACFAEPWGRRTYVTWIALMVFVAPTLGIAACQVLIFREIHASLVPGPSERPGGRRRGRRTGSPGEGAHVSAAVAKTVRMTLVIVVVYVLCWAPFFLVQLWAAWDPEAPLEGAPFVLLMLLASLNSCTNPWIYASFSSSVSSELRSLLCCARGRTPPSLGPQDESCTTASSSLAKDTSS

T1 sequence (P37288 whole entry): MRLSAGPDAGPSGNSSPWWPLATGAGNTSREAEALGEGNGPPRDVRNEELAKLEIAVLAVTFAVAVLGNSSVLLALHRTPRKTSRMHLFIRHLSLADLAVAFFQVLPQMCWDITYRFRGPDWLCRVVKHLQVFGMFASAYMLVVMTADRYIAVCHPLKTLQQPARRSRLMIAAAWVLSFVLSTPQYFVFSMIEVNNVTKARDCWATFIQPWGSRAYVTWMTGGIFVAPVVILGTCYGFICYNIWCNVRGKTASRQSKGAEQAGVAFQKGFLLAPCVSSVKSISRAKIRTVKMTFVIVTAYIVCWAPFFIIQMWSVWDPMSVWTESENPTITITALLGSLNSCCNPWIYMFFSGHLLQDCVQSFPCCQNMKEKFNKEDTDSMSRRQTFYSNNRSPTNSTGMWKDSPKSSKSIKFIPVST

| SMILES | IC50 (human V1a receptor) | ratio IC50 hV2/hV1a (human V1a receptor) | IC50 (human V2 receptor) |
| --- | --- | --- | --- |
| O=c1n(Cc2ncn(-c3cccnc3NCC(F)(F)F)n2)nc(-c2ccc(Cl)cc2)n1C[C@H](O)C(F)(F)F [Example 71, 5-(4-Chlorophenyl)-2-[(1-{2-[(2,2,2-trifluoroethyl)amino]pyridin-3-yl}-1H-1,2,4-triazol-3-yl)methyl]-4-[(2S)-3,3,3-trifluoro-2-hydroxypropyl]-2,4-dihydro-3H-1,2,4-triazol-3-one] | 150 nM | 1.6 | 240 nM |
| O=c1n(Cc2ncn(-c3cccnc3NCC3CS(=O)(=O)C3)n2)nc(-c2ccc(Cl)cc2)n1C[C@H](O)C(F)(F)F [Example 72, 5-(4-Chlorophenyl)-2-{[1-(2-{[(1,1-dioxidothietan-3-yl)methyl]amino}pyridin-3-yl)-1H-1,2,4-triazol-3-yl]methyl}-4-[(2S)-3,3,3-trifluoro-2-hydroxypropyl]-2,4-dihydro-3H-1,2,4-triazol-3-one] | 2050 nM | 15.6 | 32000 nM |
| CC(=O)Nc1ncccc1-n1cnc(Cn2nc(-c3ccc(Cl)cc3)n(C[C@H](O)C(F)(F)F)c2=O)n1 [Example 73, N-{3-[3-({3-(4-Chlorophenyl)-5-oxo-4-[(2S)-3,3,3-trifluoro-2-hydroxypropyl]-4,5-dihydro-1H-1,2,4-triazol-1-yl}methyl)-1H-1,2,4-triazol-1-yl]pyridin-2-yl}acetamide] | 53 nM | 13.4 | 710 nM |
| O=C(CC(F)(F)F)Nc1ncccc1-n1cnc(Cn2nc(-c3ccc(Cl)cc3)n(C[C@H](O)C(F)(F)F)c2=O)n1 [Example 74, N-{3-[3-({3-(4-Chlorophenyl)-5-oxo-4-[(2S)-3,3,3-trifluoro-2-hydroxypropyl]-4,5-dihydro-1H-1,2,4-triazol-1-yl}methyl)-1H-1,2,4-triazol-1-yl]pyridin-2-yl}-3,3,3-trifluoropropanamide] | 5.6 nM | 154.5 | 865 nM |
| O=C(Nc1ncccc1-n1cnc(Cn2nc(-c3ccc(Cl)cc3)n(C[C@H](O)C(F)(F)F)c2=O)n1)C1CC(F)(F)C1 [Example 80, N-{3-[3-({3-(4-Chlorophenyl)-5-oxo-4-[(2S)-3,3,3-trifluoro-2-hydroxypropyl]-4,5-dihydro-1H-1,2,4-triazol-1-yl}methyl)-1H-1,2,4-triazol-1-yl]pyridin-2-yl}-3,3-difluorocyclobutanecarboxamide] | 6.65 nM | 270.7 | 1800 nM |
| O=C(Nc1ncccc1-n1cnc(Cn2nc(-c3ccc(Cl)cc3)n(C[C@H](O)C(F)(F)F)c2=O)n1)C1(C(F)(F)F)CC1 [Example 81, N-{3-[3-({3-(4-Chlorophenyl)-5-oxo-4-[(2S)-3,3,3-trifluoro-2-hydroxypropyl]-4,5-dihydro-1H-1,2,4-triazol-1-yl}methyl)-1H-1,2,4-triazol-1-yl]pyridin-2-yl}-1-(trifluoromethyl)cyclopropanecarboxamide] | 2.05 nM | 658.5 | 1350 nM |
| O=C(Nc1ncccc1-n1cnc(Cn2nc(-c3ccc(Cl)cc3)n(C[C@H](O)C(F)(F)F)c2=O)n1)C1CC1 [Example 83, N-{3-[3-({3-(4-Chlorophenyl)-5-oxo-4-[(2S)-3,3,3-trifluoro-2-hydroxypropyl]-4,5-dihydro-1H-1,2,4-triazol-1-yl}methyl)-1H-1,2,4-triazol-1-yl]pyridin-2-yl}cyclopropanecarboxamide] | 5.35 nM | 106.5 | 570 nM |
| O=C(Nc1ncccc1-n1cnc(Cn2nc(-c3ccc(Cl)cc3)n(C[C@H](O)C(F)(F)F)c2=O)n1)C1CC1F (stereo partly drawn) [Example 85, N-{3-[3-({3-(4-Chlorophenyl)-5-oxo-4-[(2S)-3,3,3-trifluoro-2-hydrxypropyl]-4,5-dihydro-1H-1,2,4-triazol-1-yl}methyl)-1H-1,2,4-triazol-1-yl]pyridin-2-yl}-2-fluorocyclopropanecarboxamide] | 7.35 nM | 673.5 | 4950 nM |
| O=C(CC1CC1)Nc1ncccc1-n1cnc(Cn2nc(-c3ccc(Cl)cc3)n(C[C@H](O)C(F)(F)F)c2=O)n1 [Example 87, N-{3-[3-({3-(4-Chlorophenyl)-5-oxo-4-[(2S)-3,3,3-trifluoro-2-hydroxypropyl]-4,5-dihydro-1H-1,2,4-triazol-1-yl}methyl)-1H-1,2,4-triazol-1-yl]pyridin-2-yl}-2-cyclopropylacetamide] | 4.8 nM | 228.1 | 1100 nM |
| O=C(Cn1cncn1)Nc1ncccc1-n1cnc(Cn2nc(-c3ccc(Cl)cc3)n(C[C@H](O)C(F)(F)F)c2=O)n1 [Example 88, N-{3-[3-({3-(4-Chlorophenyl)-5-oxo-4-[(2S)-3,3,3-trifluoro-2-hydroxypropyl]-4,5-dihydro-1H-1,2,4-triazol-1-yl}methyl)-1H-1,2,4-triazol-1-yl]pyridin-2-yl}-2-(1H-1,2,4-triazol-1-yl)acetamide] | 41 nM | 28.7 | 1170 nM |
| O=C(Cc1cccnc1)Nc1ncccc1-n1cnc(Cn2nc(-c3ccc(Cl)cc3)n(C[C@H](O)C(F)(F)F)c2=O)n1 [Example 89] | 36 nM | 51.4 | 1850 nM |
| CN1CC(C(=O)Nc2ncccc2-n2cnc(Cn3nc(-c4ccc(Cl)cc4)n(C[C@H](O)C(F)(F)F)c3=O)n2)CC1=O (stereo partly drawn) [Example 90] | 90 nM | 17.2 | 1550 nM |
| O=C(CN1CCCC1=O)Nc1ncccc1-n1cnc(Cn2nc(-c3ccc(Cl)cc3)n(C[C@H](O)C(F)(F)F)c2=O)n1 [Example 91] | 195 nM | 6.4 | 1250 nM |
| Cc1cnn(CC(=O)Nc2ncccc2-n2cnc(Cn3nc(-c4ccc(Cl)cc4)n(C[C@H](O)C(F)(F)F)c3=O)n2)c1 [Example 92] | 240 nM | 7.3 | 1750 nM |
| O=C(Nc1ncccc1-n1cnc(Cn2nc(-c3ccc(Cl)cc3)n(C[C@H](O)C(F)(F)F)c2=O)n1)c1cncc(F)c1 [Example 93] | 7.65 nM | 66.0 | 505 nM |
| Cc1nccn1CC(=O)Nc1ncccc1-n1cnc(Cn2nc(-c3ccc(Cl)cc3)n(C[C@H](O)C(F)(F)F)c2=O)n1 [Example 94] | 16 nM | 140.6 | 2250 nM |

| SMILES | IC50 (human V1a receptor) | ratio IC50 hV2/hV1a (human V1a receptor) | IC50 (human V2 receptor) |
| --- | --- | --- | --- |
| O=C(Nc1ncccc1-n1cnc(Cn2nc(-c3ccc(Cl)cc3)n(C[C@H](O)C(F)(F)F)c2=O)n1)c1ccccc1 [Example 95] | 92 nM | 23.4 | 2150 nM |
| CNCC(=O)Nc1ncccc1-n1cnc(Cn2nc(-c3ccc(Cl)cc3)n(C[C@H](O)C(F)(F)F)c2=O)n1 [Example 96] | 2.1 nM | 266.7 | 560 nM |
| O=C(Cc1ccccc1)Nc1ncccc1-n1cnc(Cn2nc(-c3ccc(Cl)cc3)n(C[C@H](O)C(F)(F)F)c2=O)n1 [Example 97] | 135 nM | 15.2 | 2050 nM |
| CC1(C(=O)Nc2ncccc2-n2cnc(Cn3nc(-c4ccc(Cl)cc4)n(C[C@H](O)C(F)(F)F)c3=O)n2)CCCO1 (stereo partly drawn) [Example 98] | 125 nM | 7.6 | 945 nM |
| CC1CC(=O)NC1C(=O)Nc1ncccc1-n1cnc(Cn2nc(-c3ccc(Cl)cc3)n(C[C@H](O)C(F)(F)F)c2=O)n1 (stereo partly drawn) [Example 99] | 40 nM | 100.0 | 4000 nM |
| O=C(Nc1ncccc1-n1cnc(Cn2nc(-c3ccc(Cl)cc3)n(C[C@H](O)C(F)(F)F)c2=O)n1)c1csnn1 [Example 100] | 26.5 nM | 40.2 | 1060 nM |
| O=C(Nc1ncccc1-n1cnc(Cn2nc(-c3ccc(Cl)cc3)n(C[C@H](O)C(F)(F)F)c2=O)n1)c1ccccc1O [Example 101] | 110 nM | 17.7 | 1950 nM |
| Cc1cc(C(=O)Nc2ncccc2-n2cnc(Cn3nc(-c4ccc(Cl)cc4)n(C[C@H](O)C(F)(F)F)c3=O)n2)on1 [Example 102] | 80 nM | 14.4 | 1150 nM |
| O=C(CN1CCCCC1)Nc1ncccc1-n1cnc(Cn2nc(-c3ccc(Cl)cc3)n(C[C@H](O)C(F)(F)F)c2=O)n1 [Example 103] | 155 nM | 15.5 | 2400 nM |
| O=C(Nc1ncccc1-n1cnc(Cn2nc(-c3ccc(Cl)cc3)n(C[C@H](O)C(F)(F)F)c2=O)n1)c1cnccn1 [Example 104] | 8.25 nM | 193.9 | 1600 nM |
| O=C(CC1CCCCC1)Nc1ncccc1-n1cnc(Cn2nc(-c3ccc(Cl)cc3)n(C[C@H](O)C(F)(F)F)c2=O)n1 [Example 105] | 130 nM | 8.5 | 1100 nM |
| Cn1nccc1C(=O)Nc1ncccc1-n1cnc(Cn2nc(-c3ccc(Cl)cc3)n(C[C@H](O)C(F)(F)F)c2=O)n1 [Example 106] | 2.35 nM | 510.6 | 1200 nM |
| Cc1cccc(C(=O)Nc2ncccc2-n2cnc(Cn3nc(-c4ccc(Cl)cc4)n(C[C@H](O)C(F)(F)F)c3=O)n2)n1 [Example 107] | 5.65 nM | 125.7 | 710 nM |
| Cc1nc(C(=O)Nc2ncccc2-n2cnc(Cn3nc(-c4ccc(Cl)cc4)n(C[C@H](O)C(F)(F)F)c3=O)n2)no1 [Example 108] | 31.5 nM | 22.2 | 700 nM |
| CN1CCC(C(=O)Nc2ncccc2-n2cnc(Cn3nc(-c4ccc(Cl)cc4)n(C[C@H](O)C(F)(F)F)c3=O)n2)CC1 [Example 109] | 115 nM | 58.7 | 6750 nM |
